Data from paper PMC11811597, “Phenomics‐Based Discovery of Novel Orthosteric Choline Kinase Inhibitors” (Angewandte Chemie (International Ed. in English), 2025).

Target: T1, EHMT1 (Homo sapiens, UniProt Q9H9B1)
T1 construct: endogenous in cells; host or cells: PBMC from healthy blood donors, cell extract
T1 sequence (Q9H9B1 1-1298): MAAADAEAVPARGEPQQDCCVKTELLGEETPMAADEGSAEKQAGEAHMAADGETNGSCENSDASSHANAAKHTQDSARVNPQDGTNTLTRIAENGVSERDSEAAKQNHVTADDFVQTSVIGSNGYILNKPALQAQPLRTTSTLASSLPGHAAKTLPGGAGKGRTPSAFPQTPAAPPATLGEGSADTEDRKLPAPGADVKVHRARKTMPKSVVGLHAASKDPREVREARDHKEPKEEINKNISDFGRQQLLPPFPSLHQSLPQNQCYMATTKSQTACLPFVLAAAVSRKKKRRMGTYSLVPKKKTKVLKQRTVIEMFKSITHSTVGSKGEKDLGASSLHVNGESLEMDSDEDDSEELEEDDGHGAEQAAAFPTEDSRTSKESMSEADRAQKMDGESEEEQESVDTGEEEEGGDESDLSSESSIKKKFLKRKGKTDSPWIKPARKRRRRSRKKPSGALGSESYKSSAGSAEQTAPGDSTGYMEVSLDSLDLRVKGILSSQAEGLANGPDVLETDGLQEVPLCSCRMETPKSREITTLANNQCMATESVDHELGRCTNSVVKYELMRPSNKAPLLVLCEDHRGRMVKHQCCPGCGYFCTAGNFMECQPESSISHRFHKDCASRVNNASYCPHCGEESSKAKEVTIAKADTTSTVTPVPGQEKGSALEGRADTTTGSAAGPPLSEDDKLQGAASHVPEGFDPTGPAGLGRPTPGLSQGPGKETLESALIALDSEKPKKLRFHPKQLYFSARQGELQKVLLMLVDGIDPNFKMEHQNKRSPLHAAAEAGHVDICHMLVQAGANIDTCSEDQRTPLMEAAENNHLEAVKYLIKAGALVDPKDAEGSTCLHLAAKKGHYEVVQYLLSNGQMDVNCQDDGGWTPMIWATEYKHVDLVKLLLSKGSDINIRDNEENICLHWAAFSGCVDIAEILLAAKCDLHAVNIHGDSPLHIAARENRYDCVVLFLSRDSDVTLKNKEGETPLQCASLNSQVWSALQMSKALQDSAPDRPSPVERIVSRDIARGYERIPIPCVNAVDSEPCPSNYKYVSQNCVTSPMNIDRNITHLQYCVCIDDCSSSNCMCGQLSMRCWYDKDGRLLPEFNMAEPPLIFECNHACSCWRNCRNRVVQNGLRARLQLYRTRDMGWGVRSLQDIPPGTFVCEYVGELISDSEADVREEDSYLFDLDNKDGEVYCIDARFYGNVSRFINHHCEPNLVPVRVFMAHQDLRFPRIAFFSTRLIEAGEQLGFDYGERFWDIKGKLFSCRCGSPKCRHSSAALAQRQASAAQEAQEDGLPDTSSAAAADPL
Test: Competitive affinity-based chemoproteomics (UNC0965 matrix), PBMC cell extract
Type: binding
Settings: 20 µM competitor; for FC vs DMSO (log2 competition), EHMT1: n=2
Procedure: described.[2] Lysates were precleared with bead slurry (100 μL) for 30 min at 4 °C and then treated with UNC0638 or UNC0737 (20 μM) or DMSO control for 30 min at 4 °C followed by incubation with affinity matrix for 2 h at 4 °C. Affinity matrices were washed with buffer A (5 mL) and proteins eluted with 100 μL of 2x Laemmli sample buffer, 100 mM DTT, in PBS and heating for 10 min at 90 °C.
Eluents (70 µL) were diluted in 0.1 M Tris (pH 7.8) to 200 µL, reduced with 5 mM DTT for 30 min at RT, and alkylated with 20 mM iodoacetamide for 30 min at RT in the dark. Proteins were precipitated by sequential addition of MeOH (600 µL), CHCl3 (150 µL) and H2O (450 µL), pelleted (17,000 × g, 5 min), washed with further MeOH (2 × 600 µL), and re-pelleted. Air dried pellets were resuspended in 50 μL 6 M urea (pH 7.8) by vortexing and then diluted with 250 μL H2O before adding 1 µg trypsin for overnight incubation at 37 °C. The digests were acidified with FA (1% v/v final concentration), desalted using SOLA HRP SPE Cartridges (Thermo Fisher), eluted with 69% v/v MeCN, 0.1% v/v FA in H2O (600 μL) and dried in vacuo. Dried peptides were stored at -20 °C before resuspension in 2% v/v MeCN, 0.1% v/v FA in H2O (20 μL) for LC-MS/MS analysis.
LC-MS/MS Data Acquisition
Digested samples were analysed by nano-UPLC–MS/MS using a Dionex Ultimate 3000 nano UPLC fitted with an EASY spray column (75 μm × 500 mm, 2 μm particle size, Thermo Scientific), coupled to an Orbitrap Q Exactive instrument. A 60 min gradient of 0.1% (v/v) formic acid in 5 % (v/v) DMSO to 0.1% (v/v) formic acid with 35% (v/v) acetonitrile in 5 % (v/v) DMSO at a flow rate of 250 nL min−1 was used. The instrument was operated in a data-dependant mode, with survey scans acquired at a resolution of 70,000 at 200 m/z and the 15 most abundant precursors selected for HCD fragmentation with an AGC target of […] ions.
Raw data was processed using MaxQuant[3] version 2.0.1.0 and the reference complete human proteome FASTA file (UniProt, downloaded 05.08.21). Label Free Quantification (LFQ) and Match Between Runs were selected; Cysteine carbamidomethylation was selected as a fixed modification, and methionine oxidation and asparagine deamidation as variable modifications. Default settings for identification and quantification were used. Specifically, a minimum peptide length of 7, a maximum of 2 missed cleavage sites, and a maximum of 5 labelled amino acids per peptide were allowed.
Through selection of the ‘trypsin/P’ general setting, peptide bond cleavage at arginine or lysine (followed by any amino acid) was considered during in silico digest of the reference proteome. The allowed precursor and fragment ion mass tolerances were 4.5 ppm and 20 ppm, respectively. Peptides and proteins were identified utilizing a 0.01 false discovery rate, with “unique and razor peptides” […]
mode selected for both identification and quantification of proteins (razor peptides are uniquely assigned to protein groups and not to individual proteins).

## COc1cc2c(NC3CCN(C(C)C)CC3)nc(C3CCCCC3)nc2cc1OCCCN1CCCC1 [UNC0638]
  EHMT1 (GLP) binding to the matrix: reduced binding to the matrix
  FC vs DMSO (log2 competition), EHMT1: -2.05

## COc1cc2c(N(C)C3CCN(C(C)C)CC3)nc(C3CCCCC3)nc2cc1OCCCN1CCCC1 [UNC0737]
  FC vs DMSO (log2 competition), EHMT1: 0.1524
